Paper PMC6881293, “Nanomolar-potency ‘co-potentiator’ therapy for cystic fibrosis caused by a defined subset of minimal function CFTR mutants” (Scientific Reports, 2019)

Key:
S492F-CFTR = target: T1, S492F-CFTR (Homo sapiens, UniProt P13569, S492F); assay: Short-circuit current in FRT cells expressing S492F-CFTR; format: cell-based; conditions: 20 µM forskolin, 5 µM VX-770, 20 µM ASP-11, 3 µM VX-809 for 18–24 h
T1 construct: expressed in transfected cells; host or cells: Fischer rat thyroid (FRT) cells; gift from Drs; Andras Rab and Jeong Hong (Emory University)
T1 sequence (P13569 whole entry S492F): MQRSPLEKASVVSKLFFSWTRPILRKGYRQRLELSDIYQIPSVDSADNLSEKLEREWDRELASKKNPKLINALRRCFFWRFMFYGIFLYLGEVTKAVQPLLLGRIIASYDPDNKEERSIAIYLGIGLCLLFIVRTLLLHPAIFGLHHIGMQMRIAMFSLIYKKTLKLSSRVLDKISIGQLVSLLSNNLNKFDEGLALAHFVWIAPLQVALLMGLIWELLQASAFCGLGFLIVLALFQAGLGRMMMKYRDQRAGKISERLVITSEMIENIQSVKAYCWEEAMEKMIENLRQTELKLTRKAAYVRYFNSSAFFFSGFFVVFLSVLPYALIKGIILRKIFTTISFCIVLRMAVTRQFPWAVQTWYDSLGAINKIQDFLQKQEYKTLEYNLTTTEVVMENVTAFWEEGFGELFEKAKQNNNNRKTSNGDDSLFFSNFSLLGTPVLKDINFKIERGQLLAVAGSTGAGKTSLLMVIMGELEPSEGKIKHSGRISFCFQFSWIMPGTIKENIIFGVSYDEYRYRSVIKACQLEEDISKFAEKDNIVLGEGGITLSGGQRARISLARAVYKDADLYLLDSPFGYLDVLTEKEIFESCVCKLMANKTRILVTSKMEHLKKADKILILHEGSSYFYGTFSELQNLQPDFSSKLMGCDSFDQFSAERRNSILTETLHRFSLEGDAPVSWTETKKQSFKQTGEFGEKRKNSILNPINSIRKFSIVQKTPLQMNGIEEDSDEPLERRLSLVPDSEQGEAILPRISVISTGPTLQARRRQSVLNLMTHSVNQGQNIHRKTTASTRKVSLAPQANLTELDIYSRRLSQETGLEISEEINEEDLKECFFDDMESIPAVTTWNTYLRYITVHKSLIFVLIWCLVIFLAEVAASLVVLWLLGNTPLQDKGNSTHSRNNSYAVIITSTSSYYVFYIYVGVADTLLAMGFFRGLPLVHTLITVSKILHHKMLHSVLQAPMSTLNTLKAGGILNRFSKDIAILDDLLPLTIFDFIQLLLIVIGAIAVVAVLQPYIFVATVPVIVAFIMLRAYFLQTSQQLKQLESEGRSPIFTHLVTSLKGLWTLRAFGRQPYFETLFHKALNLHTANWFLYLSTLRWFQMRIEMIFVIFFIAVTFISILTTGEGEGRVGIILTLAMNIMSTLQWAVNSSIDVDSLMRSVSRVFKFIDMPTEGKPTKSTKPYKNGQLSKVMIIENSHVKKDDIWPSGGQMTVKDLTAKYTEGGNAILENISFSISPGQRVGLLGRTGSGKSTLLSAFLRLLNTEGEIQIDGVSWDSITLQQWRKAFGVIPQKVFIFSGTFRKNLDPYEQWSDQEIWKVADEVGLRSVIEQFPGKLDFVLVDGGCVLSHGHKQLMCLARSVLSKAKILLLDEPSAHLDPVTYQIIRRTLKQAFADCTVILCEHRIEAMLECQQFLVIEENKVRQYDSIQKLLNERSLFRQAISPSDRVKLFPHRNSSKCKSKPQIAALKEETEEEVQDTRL
Procedure: (§1) Figure 1 Co-potentiator ASP-11 activity in minimal function CFTR mutants in transfected FRT cells. (A) Structure of ASP-11. (B) Location of minimal function CFTR mutants studied herein. (C) Representative short-circuit current data in FRT cells expressing I1234del-CFTR, Q1313X-CFTR and S492F-CFTR in response to 20 µM forskolin (fsk), 5 µM VX-770, 20 µM ASP-11 and 10 μM CFTRinh-172. As indicated, cells were treated with 3 µM VX-809 for 18–24 h prior to measurements. (n = 3) (D). Representative short-circuit current data in FRT cells expressing predicted W1282X-CFTR read-through products W1282L-CFTR, W1282R-CFTR and W1282C-CFTR (without and with VX-809 pretreatment) (n = 3). MSD, membrane spanning domain; NBD, nucleotide binding domain; R, regulatory domain.
(§2) As shown in Fig. 1C and summarized in Fig. 2, ASP-11 acted in synergy with VX-770 to increase chloride current in FRT cells expressing the NBD2 mutations I1234del- and Q1313X-CFTR by ~3–9-fold compared to VX-770. I1234del- and Q1313X-CFTR-expressing cells were also treated with VX-809 for 24 hours (to consider the effect of available CFTR therapeutics) with 2–3-fold greater currents observed.
Short-circuit current was measured on cells cultured on Snapwell clear permeable supports (Corning) as described[10],[11]. Hemichambers were connected to a DVC-1000 voltage clamp (World Precision Instruments Inc., Sarasota, FL) via Ag/AgCl electrodes and 3 M KCl agar bridges for recording of the short-circuit current. For human airway epithelial cells, symmetrical HCO3^−-buffered solutions (in mM: 120 NaCl, 5 KCl, 1 MgCl2, 1 CaCl2, 5 Hepes, 25 NaHCO3, 10 glucose, pH 7.4) for basolateral and apical side were used. For FRT cells, the basolateral membrane was permeabilized with 250 μg/ml amphotericin B, and experiments were done with a chloride gradient using a HCO3^−-buffered solutions (Basolateral (mM): 120 NaCl, 5 KCl, 1 MgCl2, 1 CaCl2, 5 Hepes, 25 NaHCO3, 10 glucose, pH 7.4; apical (mM): 60 NaCl, 60 mM sodium gluconate, 5 KCl, 1 MgCl2, 1 CaCl2, 5 Hepes, 25 NaHCO3, 10 glucose, pH 7.4). […]

V520F-CFTR = target: T2, V520F-CFTR (Homo sapiens, UniProt P13569, V520F); assay: Short-circuit current in FRT cells expressing V520F-CFTR; format: cell-based; conditions: 20 μM forskolin, 5 µM VX-770, 20 µM ASP-11
T2 construct: expressed in transfected cells; host or cells: Fischer rat thyroid (FRT) cells; gift from Drs; Andras Rab and Jeong Hong (Emory University)
T2 sequence (P13569 whole entry V520F): as the sequence (P13569 whole entry S492F) above, with F492S, V520F counted along it
Procedure: as §2
(§3) Figure 2 Summary of short-circuit current responses to modulators for CFTR mutants in transfected FRT cells. Responses to indicated CFTR mutants with 20 μM forskolin, 5 µM VX-770, 20 µM ASP-11 (with or without 3 µM VX-809 overnight). For reference, data shown for cells expressing wild type CFTR. Mean ± S.E.M., n = 3.
(§4) Short-circuit current was measured on cells cultured on Snapwell clear permeable supports (Corning) as described[10],[11]. Hemichambers were connected to a DVC-1000 voltage clamp (World Precision Instruments Inc., Sarasota, FL) via Ag/AgCl electrodes and 3 M KCl agar bridges for recording of the short-circuit current. For human airway epithelial cells, symmetrical HCO3^−-buffered solutions (in mM: 120 NaCl, 5 KCl, 1 MgCl2, 1 CaCl2, 5 Hepes, 25 NaHCO3, 10 glucose, pH 7.4) for basolateral and apical side were used. […]

R334W-CFTR = target: T3, R334W-CFTR (Homo sapiens, UniProt P13569, R334W); assay: Short-circuit current in FRT cells expressing R334W-CFTR; format: cell-based; conditions: 20 μM forskolin, 5 µM VX-770, 20 µM ASP-11
T3 construct: expressed in transfected cells; host or cells: Fischer rat thyroid (FRT) cells; gift from Drs; Andras Rab and Jeong Hong (Emory University)
T3 sequence (P13569 whole entry R334W): as the sequence (P13569 whole entry S492F) above, with R334W, F492S counted along it
Procedure: as §2, §3, §4

M1101K-CFTR = target: T4, M1101K-CFTR (Homo sapiens, UniProt P13569, M1101K); assay: Short-circuit current in FRT cells expressing M1101K-CFTR; format: cell-based; conditions: 20 μM forskolin, 5 µM VX-770, 20 µM ASP-11
T4 construct: expressed in transfected cells; host or cells: Fischer rat thyroid (FRT) cells; gift from Drs; Andras Rab and Jeong Hong (Emory University)
T4 sequence (P13569 whole entry M1101K): as the sequence (P13569 whole entry S492F) above, with F492S, M1101K counted along it
Procedure: as §2, §3, §4

R1162X-CFTR = target: T5, R1162X-CFTR (Homo sapiens, UniProt P13569); assay: Short-circuit current in FRT cells expressing R1162X-CFTR; format: cell-based; conditions: 5 µM VX-770, 20 µM ASP-11, 3 µM VX-809 overnight
T5 construct: expressed in transfected cells; host or cells: Fischer rat thyroid (FRT) cells; gift from Drs; Andras Rab and Jeong Hong (Emory University)
T5 sequence (P13569 1-1161 limits assumed): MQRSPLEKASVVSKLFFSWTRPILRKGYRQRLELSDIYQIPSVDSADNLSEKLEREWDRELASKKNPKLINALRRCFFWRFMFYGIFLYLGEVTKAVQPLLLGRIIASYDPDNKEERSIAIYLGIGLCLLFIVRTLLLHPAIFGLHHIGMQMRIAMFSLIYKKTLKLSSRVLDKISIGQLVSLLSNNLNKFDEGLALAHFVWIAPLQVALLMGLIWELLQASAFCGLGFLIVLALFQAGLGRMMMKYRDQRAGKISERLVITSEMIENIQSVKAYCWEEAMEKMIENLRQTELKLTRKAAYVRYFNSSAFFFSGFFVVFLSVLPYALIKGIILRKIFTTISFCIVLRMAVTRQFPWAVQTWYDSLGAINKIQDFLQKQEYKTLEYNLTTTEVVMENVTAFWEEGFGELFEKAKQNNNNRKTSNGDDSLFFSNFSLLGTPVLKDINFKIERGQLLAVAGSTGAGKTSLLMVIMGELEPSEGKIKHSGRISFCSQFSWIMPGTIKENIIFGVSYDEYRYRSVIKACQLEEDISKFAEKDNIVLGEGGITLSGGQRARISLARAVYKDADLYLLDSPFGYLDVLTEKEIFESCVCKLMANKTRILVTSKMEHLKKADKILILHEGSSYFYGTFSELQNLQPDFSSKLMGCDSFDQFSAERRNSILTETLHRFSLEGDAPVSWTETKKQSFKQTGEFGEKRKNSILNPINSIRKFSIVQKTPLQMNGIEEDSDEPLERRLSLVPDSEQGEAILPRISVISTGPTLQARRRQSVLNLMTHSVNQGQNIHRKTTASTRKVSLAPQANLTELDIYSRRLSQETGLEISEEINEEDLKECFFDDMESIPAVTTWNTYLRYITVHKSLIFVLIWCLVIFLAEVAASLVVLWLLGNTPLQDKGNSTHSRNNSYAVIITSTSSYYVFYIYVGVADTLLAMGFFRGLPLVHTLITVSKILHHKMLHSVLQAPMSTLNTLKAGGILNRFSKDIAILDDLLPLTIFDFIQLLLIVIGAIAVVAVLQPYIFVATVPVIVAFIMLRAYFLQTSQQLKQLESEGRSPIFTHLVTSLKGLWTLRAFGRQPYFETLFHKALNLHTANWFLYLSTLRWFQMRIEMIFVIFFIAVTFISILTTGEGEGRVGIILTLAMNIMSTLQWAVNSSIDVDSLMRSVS
Procedure: as §2, §3
Short-circuit current was measured on cells cultured on Snapwell clear permeable supports (Corning) as described[10],[11]. Hemichambers were connected to a DVC-1000 voltage clamp (World Precision Instruments Inc., Sarasota, FL) via Ag/AgCl electrodes and 3 M KCl agar bridges for recording of the short-circuit current. For human airway epithelial cells, symmetrical HCO3^−-buffered solutions (in mM: 120 NaCl, 5 KCl, 1 MgCl2, 1 CaCl2, 5 Hepes, 25 NaHCO3, 10 glucose, pH 7.4) for basolateral and apical side were used. For FRT cells, the basolateral membrane was permeabilized with 250 μg/ml amphotericin B, and experiments were done with a chloride gradient using a HCO3^−-buffered solutions (Basolateral (mM): 120 NaCl, 5 KCl, 1 MgCl2, 1 CaCl2, 5 Hepes, 25 NaHCO3, 10 glucose, pH 7.4; apical (mM): 60 NaCl, 60 mM sodium gluconate, 5 KCl, 1 MgCl2, 1 CaCl2, 5 Hepes, 25 NaHCO3, 10 glucose, pH 7.4). All cells were equilibrated with 95% O2, 5% CO2 and maintained at 37 °C during experiments.

I1234del-CFTR = target: T6, I1234del-CFTR (Homo sapiens, UniProt P13569, DEL1234-1239); assay: Short-circuit current in FRT cells expressing I1234del-CFTR; format: cell-based; conditions: I1234del-CFTR FRT cells; 20 µM forskolin, 5 µM VX-770, 20 µM ASP-11; range stated jointly for I1234del- and Q1313X-CFTR
T6 construct: introduced into full-length CFTR cDNA in the vector pcDNA3.1/Zeo (+); expressed in transfected cells
Procedure: as §1, §2
(§5) Short-circuit current was measured on cells cultured on Snapwell clear permeable supports (Corning) as described[10],[11]. […]

W1282L-CFTR = target: T7, W1282L-CFTR (Homo sapiens, UniProt P13569, W1282L); assay: Short-circuit current in FRT cells expressing W1282L-CFTR; format: cell-based; conditions: 20 µM forskolin, 5 µM VX-770, 20 µM ASP-11
T7 construct: introduced into full-length CFTR cDNA in the vector pcDNA3.1/Zeo (+); expressed in transfected cells
T7 sequence (P13569 whole entry W1282L): as the sequence (P13569 whole entry S492F) above, with F492S, W1282L counted along it
Procedure: as §1
(§6) Compounds that promote read-through of PTCs to generate full-length CFTR have shown limited efficacy in cell culture studies[15]–[17]. Though the read-through drug ataluren (PTC124) was ineffective in clinical trials, newer compounds are in development. We investigated the ability of ASP-11 to activate chloride current in predicted W1282X-CFTR read-through products. […] FRT cell lines were generated that stably expressing W1282L-, W1282C- and W1282R-CFTR.
as §5

G551D-CFTR = tested on: G551D-CFTR; parameters: method as in PMID 29903467; conditions: previously showed; cited from earlier work
W1282C-CFTR = target: T8, W1282C-CFTR (Homo sapiens, UniProt P13569, W1282C); assay: Short-circuit current in FRT cells expressing W1282C-CFTR; format: cell-based; conditions: 20 µM forskolin, 5 µM VX-770, 20 µM ASP-11
T8 construct: introduced into full-length CFTR cDNA in the vector pcDNA3.1/Zeo (+); expressed in transfected cells
T8 sequence (P13569 whole entry W1282C): as the sequence (P13569 whole entry S492F) above, with F492S, W1282C counted along it
Procedure: as §1, §6, §5

W1282X-CFTR [1] = target: T9, W1282X-CFTR (Homo sapiens, UniProt P13569); parameters: method as in PMID 27895116, PMID 29903467; conditions: transfected FRT cells expressing CFTR1281 (truncation product of W1282X-CFTR); cited from earlier work
T9 construct: expressed in transfected cells
T9 sequence (P13569 1-1281 limits assumed): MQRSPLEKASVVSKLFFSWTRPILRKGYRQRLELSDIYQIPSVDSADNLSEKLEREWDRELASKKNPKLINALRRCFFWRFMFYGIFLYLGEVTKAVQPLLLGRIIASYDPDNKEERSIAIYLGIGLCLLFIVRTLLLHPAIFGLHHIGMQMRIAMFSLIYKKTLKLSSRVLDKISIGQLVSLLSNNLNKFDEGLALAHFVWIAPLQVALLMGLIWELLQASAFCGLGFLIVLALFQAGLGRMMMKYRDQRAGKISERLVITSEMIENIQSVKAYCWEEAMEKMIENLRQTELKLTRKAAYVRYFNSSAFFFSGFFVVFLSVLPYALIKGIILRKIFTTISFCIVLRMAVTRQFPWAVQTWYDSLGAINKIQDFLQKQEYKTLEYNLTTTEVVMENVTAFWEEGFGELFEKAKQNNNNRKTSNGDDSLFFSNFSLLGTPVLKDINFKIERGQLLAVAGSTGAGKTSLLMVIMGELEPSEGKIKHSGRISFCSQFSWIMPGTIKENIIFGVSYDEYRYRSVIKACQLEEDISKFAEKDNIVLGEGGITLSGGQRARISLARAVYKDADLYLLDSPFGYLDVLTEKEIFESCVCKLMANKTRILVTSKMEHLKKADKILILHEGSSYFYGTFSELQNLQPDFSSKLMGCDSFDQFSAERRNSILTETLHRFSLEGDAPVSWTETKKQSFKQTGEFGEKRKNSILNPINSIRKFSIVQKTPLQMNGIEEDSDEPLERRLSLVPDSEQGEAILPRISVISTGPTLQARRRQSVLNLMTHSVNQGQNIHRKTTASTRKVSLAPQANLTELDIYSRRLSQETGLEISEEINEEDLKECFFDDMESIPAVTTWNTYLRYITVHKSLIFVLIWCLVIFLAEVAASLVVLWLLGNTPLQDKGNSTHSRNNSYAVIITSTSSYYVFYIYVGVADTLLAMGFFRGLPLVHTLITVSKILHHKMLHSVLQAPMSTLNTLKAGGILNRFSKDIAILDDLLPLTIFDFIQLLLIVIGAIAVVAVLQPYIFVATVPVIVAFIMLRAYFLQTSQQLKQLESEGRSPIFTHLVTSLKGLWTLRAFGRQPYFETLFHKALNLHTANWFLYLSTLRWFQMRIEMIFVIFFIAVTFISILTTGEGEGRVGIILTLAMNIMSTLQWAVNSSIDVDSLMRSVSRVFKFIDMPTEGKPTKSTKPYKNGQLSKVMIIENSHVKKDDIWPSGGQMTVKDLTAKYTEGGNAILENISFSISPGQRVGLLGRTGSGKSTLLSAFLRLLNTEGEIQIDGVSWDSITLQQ

W1282X-CFTR [2] = target: T9, W1282X-CFTR; assay: Structure-activity testing of analogs in FRT cells expressing W1282X-CFTR; format: cell-based
Procedure: To establish structure-activity relationships, 240 commercially available piperidinepyridoindole analogs and 160 pyrazoloquinoline analogs were tested in FRT cells expressing W1282X-CFTR. In general, the methoxy substituent on the 4-position (R^3) on the pyridoindole ring increased potency (compare A01 vs A534). N-methylation on the pyridoindole ring abolished activity (compare A534 vs A600). For substituent R^1 on the piperidine ring, substituted benzyl gave greatest activity (A061 and A662). Other R^1 substituents, including sulfonamide (A145), alkyl (A764) and carbocyclic (A714), reduced activity. Changing the benzylic carbon from methylene (CH2) to ketone (C=O) abolished activity (A815, A350 and A956).
For R^3, pyridine (D003), benzyl (D035) and substituted methyl-pyrazole (D086) abolished activity. […] The D123 pyrazoloquinoline with R^3 substituted with thiophene-quinoline heterocycle gave the best potency.

short-circuit current response to modulator (S492F-CFTR) | ASP-11 effect on short-circuit current (V520F-CFTR) | ASP-11 effect on short-circuit current (R334W-CFTR) | ASP-11 effect on short-circuit current (M1101K-CFTR) | short-circuit current response to modulator (R1162X-CFTR) | fold increase in chloride current with ASP-11 plus VX-770 compared to VX-770 alone (I1234del-CFTR) | effect on short-circuit current after forskolin (W1282L-CFTR) | effect on short-circuit current after forskolin (W1282C-CFTR) | Compound | activation of G551D-CFTR (G551D-CFTR) | increase in chloride current over that produced by a high concentration of VX-770 (W1282X-CFTR [1]) | Relative Vmax (%) (W1282X-CFTR [2]; Table 1, 100% Vmax corresponds to 20 μM ASP-11) | EC50 (W1282X-CFTR [2]; Table 1, piperidine-pyridoindole analogs)
no response | absence of ASP-11 effect | absence of ASP-11 effect | absence of ASP-11 effect | did not respond | 3–9 fold | little additional | significant further effects | CCCCn1cc(S(=O)(=O)Nc2ccc(CC)cc2)c2cccnc21 [ASP-11] | activates G551D-CFTR | ~ 8 fold |  | 
 |  |  |  |  |  |  |  | COc1ccc2[nH]c3c(c2c1)CCNC31CCN(Cc2ccc(F)cc2F)CC1 [Compound A061] |  |  | 100% | 2000 nM
no response |  |  |  | did not respond |  | little additional | significant further effects | CC(C)(C)c1cc(C(C)(C)C)c(NC(=O)c2c[nH]c3ccccc3c2=O)cc1O [VX-770, ivacaftor] |  |  |  | 
